Measurements from US20250368633A1, “AZEPINE FUSED RING COMPOUND AS RIPK1 INHIBITOR AND USE THEREOF” (ARTIVILA BIOPHARMA, priority 2022, published 2025).

Tests used:
U937 cells [1] = assay: Inhibition rate of compound (1 μM) on necroptosis of U937 cells (TSZ-induced, CellTiter-Glo); format: cell-based; conditions: TSZ (hTNF-α, SM-164, Z-VAD-FMK) 20 hours
How it was run: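 U937 cells were pretreated 15 min with compound, then necroptosis was triggered with TSZ (Z-VAD-FMK, hTNF-α, SM-164) for 20 h at 37° C. Viability was read as ATP by CellTiter-Glo luminescence, and inhibition (%) was taken relative to no-TSZ and TSZ-only wells.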

U937 cells [2] = assay: EC50 of necroptosis inhibition in U937 cells (TSZ-induced, CellTiter-Glo); format: cell-based; conditions: Homo sapiens, U-937; TSZ (hTNF-α, SM-164, Z-VAD-FMK) 20 hours; 10 concentration points; read-out: EC50 intervals of necroptosis inhibition in U937 cells
How it was run: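 U937 cells pretreated 15 min with compound (10-point, 1:3 series), then necroptosis induced by TSZ (hTNF-α, SM-164, Z-VAD-FMK) for 20 h at 37 °C. Viability measured as ATP by CellTiter-Glo luminescence; inhibition normalised to untreated and TSZ-only wells, EC50 from four-parameter fit.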

RIPK1 kinase [3] = biological target: T1, RIPK1 kinase (Homo sapiens, UniProt Q13546); assay: In vitro RIPK1 kinase activity IC50 assay (ADP-Glo); format: biochemical; conditions: ATP 10 μM; MBP substrate 100 μg/mL; 8 concentration points; read-out: IC50 range of compounds for RIPK1 kinase activity
T1 construct: purchased Promega VA7593
T1 sequence (Q13546 1-671): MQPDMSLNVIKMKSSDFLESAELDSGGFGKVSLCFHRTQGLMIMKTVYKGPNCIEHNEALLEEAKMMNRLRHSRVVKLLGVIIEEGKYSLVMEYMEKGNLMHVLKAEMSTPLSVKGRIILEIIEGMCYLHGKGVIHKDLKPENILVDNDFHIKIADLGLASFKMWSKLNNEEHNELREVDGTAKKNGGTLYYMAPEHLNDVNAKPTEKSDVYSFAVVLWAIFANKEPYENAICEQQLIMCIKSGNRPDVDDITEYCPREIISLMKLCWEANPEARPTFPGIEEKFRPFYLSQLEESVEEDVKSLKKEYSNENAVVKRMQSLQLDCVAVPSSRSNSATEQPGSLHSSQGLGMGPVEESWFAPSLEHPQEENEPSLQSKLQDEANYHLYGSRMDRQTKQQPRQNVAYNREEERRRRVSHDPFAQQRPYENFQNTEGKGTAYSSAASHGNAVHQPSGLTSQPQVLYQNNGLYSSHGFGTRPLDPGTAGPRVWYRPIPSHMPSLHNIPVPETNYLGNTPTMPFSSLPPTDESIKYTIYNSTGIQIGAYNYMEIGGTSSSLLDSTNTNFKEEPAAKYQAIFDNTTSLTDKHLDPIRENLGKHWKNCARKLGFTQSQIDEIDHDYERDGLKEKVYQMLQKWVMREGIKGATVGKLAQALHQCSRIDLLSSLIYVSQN
Experimental: RIPK1 kinase activity was assayed using the ADP-Glo assay and RIPK1 kinase reaction system (Promega, catalog number: VA7593). The RIPK1 kinase activity assay was performed according to the Promega kit manual.
The experimental method was briefly described as below. The concentration of RIPK1 kinase in the RIPK1 kinase reaction system was determined by kinase titration and S/B10. The compound was diluted with 1× kinase buffer D (1% DMSO), 1 μL of 1 mM compound DMSO stock solution was added to 19 μL 1× kinase buffer D, and the compound was serially diluted with 1× kinase buffer D at a ratio of 1:5, for a total of 8 concentration points, and a control with the same DMSO volume was set. RIPK1 kinase was diluted with 1× kinase buffer D. 2.5×ATP/substrate was diluted with 1× kinase buffer D. The final concentration of ATP in the kinase reaction system was 10 μM. The final concentration of MBP substrate was 100 μg/mL. 1 μL of diluted compound and 2 μL of diluted RIPK1 kinase were mixed, incubated at room temperature for 15 minutes, 2 μL of 2.5×ATP/substrate was added, mixed, and incubated at room temperature for 1 hour. 5 μL ADP-Glo reagent was added to each well and incubated at room temperature for 1 hour. 10 μL ADP detection reagent was added to each well and incubated at room temperature for another 0.5-1 hour. The chemiluminescent signal was read with a microplate reader and the kinase activity inhibition rate was calculated. IC50 was obtained by fitting the nonlinear regression curve log [inhibitor] vs. response-variable slope (four parameters) in GraphPad Prism.

RIPK1 kinase [4] = biological target: T1, RIPK1 kinase; assay: In vitro RIPK1 kinase activity assay (ADP-Glo), inhibition by compounds at 1 μM; format: biochemical; conditions: compound 1 μM; ATP 10 μM; MBP substrate 100 μg/mL; read-out: RIPK1 kinase activity inhibition rate range
How it was run: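 Compound and RIPK1 were preincubated 15 min at room temperature, then reacted 1 h with 10 μM ATP and 100 μg/mL MBP substrate in kinase buffer D. ADP formed was measured by ADP-Glo luminescence and converted to percent inhibition of kinase activity.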

IC50 (RIPK1 kinase [3]) [nM]	inhibition at 1 µM (RIPK1 kinase [4]) [%]	Compound	Inhibition rate range of compounds (1 μM) on U937 cell necroptosis (U937 cells [1])	EC50 (U937 cells [2]) [nM]
< 100		C[C@@H](NC(=O)C(=O)N[C@H]1COc2ccc(C#CCCO)cc2N(C)C1=O)c1ccccc1 [Example 125, N^1-((S)-7-(4-hydroxybut-1-yn-1-yl)-5-methyl-4-oxo-2,3,4,5-tetrahydrobenzo[b][1,4]oxazepin-3-yl)-N^2-((R)-1-phenylethyl)oxalamide]	A (A: ≥90%)	< 100
	≥ 75	CN1C(=O)[C@@H](NC(=O)C(=O)NC(C)(C)c2ccccc2)COc2ccc(C#CCN3CCOCC3)cc21 [Example 160, (S)—N^1-(5-methyl-7-(3-morpholinoprop-1-yn-1-yl)-4-oxo-2,3,4,5-tetrahydrobenzo[b][1,4]oxazepin-3-yl)-N^2-(2-phenylpropan-2-yl)oxalamide]	A (A: ≥90%)	< 100
	50 to 74	C[C@@H](NC(=O)C(=O)N[C@H]1COc2ccc(C#CC[N+]3([O-])CCOCC3)cc2N(C)C1=O)c1ccccc1 [Example 161, 4-(3-((S)-5-methyl-4-oxo-3-(2-oxo-2-(((R)-1-phenylethyl)amino)acetamido)-2,3,4,5-tetrahydrobenzo[b][1,4]oxazepin-7-yl)prop-2-yn-1-yl) morpholine 4-oxide]	A (A: ≥90%)	< 100
	25 to 49	C[C@@H](NC(=O)C(=O)N[C@H]1CN(C)c2ccc(C#CCN3CCOCC3)cc2N(C)C1=O)c1ccccc1 [Example 166, N^1-((S)-1,5-dimethyl-8-(3-morpholinoprop-1-yn-1-yl)-2-oxo-2,3,4,5-tetrahydro-1H-benzo[b][1,4]diazepin-3-yl)-N^2-((R)-1-phenylethyl)oxalamide]	A (A: ≥90%)	< 100

More lines, now with the values behind:

Compound	IC50 (RIPK1 kinase [3]) [nM]	inhibition at 1 µM (RIPK1 kinase [4]) [%]	Inhibition rate range of compounds (1 μM) on U937 cell necroptosis (U937 cells [1])	EC50 (U937 cells [2]) [nM]
C[C@H](Cc1ccccc1)NC(=O)C(=O)N[C@H]1COc2ccc(C#CCCO)cc2N(C)C1=O [Example 153, N^1-((S)-7-(4-hydroxybut-1-yn-1-yl)-5-methyl-4-oxo-2,3,4,5-tetrahydrobenzo[b][1,4]oxazepin-3-yl)-N^2-((R)-1-phenylpropan-2-yl)oxalamide]		50 to 74	A (A: ≥90%)	100 to 500
Cc1ncsc1-c1ccc(CNC(=O)[C@@H]2C[C@@H](O)CN2C(=O)[C@@H](NC(=O)COCCOCCN2CCN(CC#Cc3ccc4c(c3)N(C)C(=O)[C@@H](NC(=O)C(=O)N[C@H](C)c3ccccc3)CO4)CC2)C(C)(C)C)cc1 [Example 162, N^1-((S)-7-(3-(4-(2-(2-(2-(((S)-1-((2S,4R)-4-hydroxy-2-((4-(4-methylthiazol-5-yl)benzyl)carbamoyl)pyrrolidin-1-yl)-3,3-dimethyl-1-oxobutan-2-yl)amino)-2-oxoethoxy)ethoxy)ethyl)piperazin-1-yl)prop-1-yn-1-yl)-5-methyl-4-oxo-2,3,4,5-tetrahydrobenzo[b][1,4]oxazepin-3-yl)-N^2-((R)-1-phenylethyl)oxalamide]		≥ 75	A (A: ≥90%)	100 to 500
Cc1ncsc1-c1ccc(CNC(=O)[C@@H]2C[C@@H](O)CN2C(=O)[C@@H](NC(=O)CCOCCOCCOCCN2CCN(CC#Cc3ccc4c(c3)N(C)C(=O)[C@@H](NC(=O)C(=O)N[C@H](C)c3ccccc3)CO4)CC2)C(C)(C)C)cc1 [Example 163, N^1-((S)-7-(3-(4-((S)-14-((2S,4R)-4-hydroxy-2-((4-(4-methylthiazol-5-yl)benzyl)carbamoyl)pyrrolidine-1-carbonyl)-15,15-dimethyl-12-oxo-3,6,9-trioxa-13-azahexadecyl)piperazin-1-yl)prop-1-yn-1-yl)-5-methyl-4-oxo-2,3,4,5-tetrahydrobenzo[b][1,4]oxazepin-3-yl)-N^2-((R)-1-phenylethyl)oxalamide]		≥ 75	A (A: ≥90%)	< 100
